Laboratory results published in publication PMC6378327, “Modes of Accessing Bicarbonate for the Regulation of Membrane Guanylate Cyclase (ROS-GC) in Retinal Rods and Cones” (eNeuro, 2019).

Target: T1, ROS-GC1 (Bos taurus, UniProt P55203)
T1 construct: gene GUCY2D; core catalytic domain, G817-Y965 (numbering for mature protein), homodimer
Assay: activation of purified recombinant core catalytic domain by […] bicarbonate, cGMP radioimmunoassay
Type: biochemical
Conditions: 30000 µM

T1 sequence (P55203 873-1021): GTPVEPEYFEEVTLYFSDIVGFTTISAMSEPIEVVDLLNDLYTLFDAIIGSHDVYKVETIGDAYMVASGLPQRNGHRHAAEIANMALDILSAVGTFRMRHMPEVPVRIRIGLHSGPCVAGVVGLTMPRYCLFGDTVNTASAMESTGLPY

## O=C(O)O [bicarbonate]
  activation of purified recombinant core catalytic domain by 30 mM bicarbonate, c: 3.4 fold activity at 30 mM
